The test system of test [1] is SW-620. Kind of test: Induction of cell cycle arrest in human SW620 cells assessed as increase in cdc25A level at 0.1 uM measured after 8 hrs by Western blot analysis. It counts as functional, cell-based.
The subject of test [2] is SW-620. The test can be described thus: Antitumor activity against human SW620 cells xenografted in athymic mouse model assessed as complete tumor regression at 50 mg/kg measured after 17 to 94 days post tumor implantation by caliper method. The settings on record: time 17-94 day. The format is functional, organism-based. For orientation: Xenograft models place foreign cells or tissue in a host animal.

Test [3] relates to SW-620. Kind of test: Antitumor activity against human SW620 cells xenografted in athymic mouse model assessed as tumor free survival at 50 mg/kg measured after 17 to 94 days post tumor implantation by caliper method. It counts as functional, organism-based. To be noted: time 17-94 day.

SMILES strings stand for the structures. The source made the active and inactive calls. The calls are words filed in the database; no cut-off is given here.

On to `Nc1ccn([C@@H]2O[C@H](CO)[C@@H](O)C2(F)F)c(=O)n1`, for which the result in test [1] was inactive.
For the compound `CCc1c2c(nc3ccc(OC(=O)N4CCC(N5CCCCC5)CC4)cc13)-c1cc3c(c(=O)n1C2)COC(=O)[C@]3(O)CC`, the result in test [2] and in test [3] was inactive.

The values are drawn from ChEMBL document CHEMBL5678797, “AZD7762, a novel checkpoint kinase inhibitor, drives checkpoint abrogation and potentiates DNA-targeted therapies” (Mol Cancer Ther, 2008).
